Experimental data as given in paper PMC9503459, “Antifungal Activity, Structural Stability, and Immunomodulatory Effects on Human Immune Cells of Defensin from the Lentil Lens culinaris” (Membranes, 2022).
No end group written: not given here.

Test system: polarized Caco-2 monolayer
Assay: Cytokine response by multiplex xMAP, Caco-2
Format: cell-based, human
Conditions: 2 µM, 24 h
Procedure: Colorectal adenocarcinoma Caco-2 cell line (ATCC HTB-37) was cultured in complete DMEM/F12 (1:1) medium containing 10% fetal bovine serum (FBS, Gibco) and 1X antibiotic-antimycotic solution (1XAAS, Invitrogen, Waltham, MA, USA). The acute monocytic leukemia THP-1 line (ATCC TIB-202) was cultured in complete RPMI-1640 medium, containing 10% FBS, 1XAAS, and […]. THP-1 cells were differentiated into pro-inflammatory macrophages (Mφ1) with phorbol 12-myristate 13-acetate (Sigma-Aldrich) for 24 h and subsequently polarized with lipopolysaccharide from E. coli (Sigma-Aldrich) and rhIFN-γ (Sigma-Aldrich) for another 48 h according to previously reported protocol. All cells were cultured in a humidified CO2 incubator (5% CO2, 37 °C). Primary peripheral blood mononuclear cells (PBMCs) collected from a healthy donor were purchased from American Type Culture Collection (ATCC PCS-800-011). CD4^+ T-helper and CD8^+ T cytotoxic cells were isolated from PBMCs by magnetic separation with mouse anti-human CD4-PE (clone 13B8.2, Beckman Coulter Diagnostics, Pasadena, CA, USA) and CD8-PE (clone REA734, Miltenyi Biotec, Bergisch Gladbach, Germany), Anti-PE MicroBeads (Miltenyi Biotec), and LS Separation Columns (Miltenyi Biotec). Isolated CD4^+ and CD8^+ cells were expanded separately with Dynabeads™ Human T-Expander CD3/CD28 (Gibco, Waltham, MA, USA) in RPMI-1640 supplemented with 10% FBS, 1XAAS and 100 U/mL rh-IL-2 (Gibco). Regulatory CD4^+ FoxP3^+ T cells (Tregs) were isolated from PBMCs by magnetic separation with CD4^+CD25^+ Regulatory T Cell Isolation Kit, human (Miltenyi Biotec). Primary CD14^+ blood monocytes were isolated from PBMCs by adherence according to standard technique. Monocyte-derived mature dendritic cells (moDCs) were obtained from CD14^+ blood monocytes according to the previously reported protocol. Briefly, blood monocytes were incubated in complete RPMI-1640 medium, containing 10% FBS, 1XAAS, 800 U/mL rhGM-CSF (Sci-Store, Russia, Moscow) and 500 U/mL rhIL-4 (Sci-Store) for 3 days. Fresh complete RPMI-1640 medium with rhGM-CSF and rhIL-4 was added to the culture on day 3. On day 5, fresh complete RPMI-1640 containing 100 U/mL rhTNF-α (Sigma) as well as 800 U/mL rhGM-CSF and 500 U/mL rhIL-4 was added and the culture was incubated for another 4 days until full maturation.
Caco-2 cells were seeded into the wells of a 48-well plate, coated with 0.1% bovine collagen (Sigma-Aldrich) for 24 h, 3 weeks before the experiment with complete DMEM/F12 (1:1) medium renewal every 2–3 days. Monocytes, moDCs, CD4^+ T-helper and CD8^+ T cytotoxic cells, Mφ1, and Regulatory CD4^+ FoxP3^+ T cells were seeded into the wells of 48-well plates in the complete RPMI-1640 medium supplemented with 10% Human AB serum (HABS, Capricorn Scientific, Ebsdorfergrund, Germany) and 1XAAS 24 h prior to the experiment; medium in Caco-2-containing wells was also replaced with the same medium. After 24 h, half of the medium in each well was replaced by fresh complete RPMI-1640 medium with 10% HABS, supplemented with 4 µM of Lc-def for the sample wells or fresh medium alone for the control wells. Cell cultures were kept in CO2-incubator (5% CO2, 37 °C) for another 24 h. Culture supernatants were collected 24 h later and stored at −70 °C degrees less than one month prior to the analytes assessment. […]

For “Lc-def: defensin from lentil Lens culinaris seeds (UniProt:B3F051), recombinant, overexpressed in Escherichia coli (KTCENLSDSFKGPCIPDGNCNKHCKEKEHLLSGRCRDDFRCWCTRNC; disulfide (positions not given here); ends not checked; also: disulfide bonds present, pairing not given here; UniProt B3F051 28-74, looked up)”, the EGF (Caco-2 monolayer) was <1.95↓ pg/ml, the Eotaxin (Caco-2 monolayer) was <3.23↓ pg/ml and the FGF-2 (Caco-2 monolayer) was 19.54 pg/mL. For the same substance, the FLT-3L (Caco-2 monolayer) was <0.45↓ pg/ml, the Fractalkine (Caco-2 monolayer) was <23.19↓ pg/ml and the G-CSF (Caco-2 monolayer) was <2.57↓ pg/ml. For the same substance, the GM-CSF (Caco-2 monolayer) was <1.36↓ pg/ml, the GROa (Caco-2 monolayer) was 21.87 pg/mL and the IFNa2 (Caco-2 monolayer) was <4.43↓ pg/ml. For the same substance, the IFNg (Caco-2 monolayer) was <1.99↓ pg/ml, the IL-1RA (Caco-2 monolayer) was <0.83↓ pg/ml and the IL-1a (Caco-2 monolayer) was <3.64↓ pg/ml. For the same substance, the IL-1b (Caco-2 monolayer) was <18.72↓ pg/ml, the IL-2 (Caco-2 monolayer) was <0.31↓ pg/ml and the IL-3 (Caco-2 monolayer) was <0.48↓ pg/ml. The IL-4 (Caco-2 monolayer) was 11.31 pg/mL, the IL-5 (Caco-2 monolayer) was <0.24↓ pg/ml and the IL-6 (Caco-2 monolayer) was 1.45 pg/mL. For the same substance, the IL-7 (Caco-2 monolayer) was <0.33↓ pg/ml, the IL-8 (Caco-2 monolayer) was 7.94 pg/mL and the IL-9 (Caco-2 monolayer) was 11.08 pg/mL. The IL-10 (Caco-2 monolayer) was <0.68↓ pg/ml, the “IL-12 (p40)” value (Caco-2 monolayer) was <3.02↓ pg/ml and the “IL-12 (p70)” value (Caco-2 monolayer) was <1.48↓ pg/ml. For the same substance, the IL-13 (Caco-2 monolayer) was 42.42 pg/mL, the IL-15 (Caco-2 monolayer) was <1.45↓ pg/ml and the IL-17A (Caco-2 monolayer) was <1.55↓ pg/ml. For the same substance, the IL-17E/IL-25 (Caco-2 monolayer) was <20.59↓ pg/ml, the IL-17F (Caco-2 monolayer) was <16.96↓ pg/ml and the IL-18 (Caco-2 monolayer) was <0.35↓ pg/ml. For the same substance, the IL-22 (Caco-2 monolayer) was 51.96 pg/mL, the IL-27 (Caco-2 monolayer) was <8.55↓ pg/ml and the IP-10 (Caco-2 monolayer) was 29.22 pg/mL. The M-GSF (Caco-2 monolayer) was <23.75↓ pg/ml, the MCP-1 (Caco-2 monolayer) was <1.52↓ pg/ml and the MCP-3 (Caco-2 monolayer) was 12.67 pg/mL. The MDC (Caco-2 monolayer) was <0.35↓ pg/ml, the MIG (Caco-2 monolayer) was <3.43↓ pg/ml and the MIP-1a (Caco-2 monolayer) was <1.76↓ pg/ml. For the same substance, the MIP-1b (Caco-2 monolayer) was <1.92↓ pg/ml, the PDGF-AA (Caco-2 monolayer) was 541.87 pg/mL and the PDGF-AB/BB (Caco-2 monolayer) was 188.6 pg/mL. The RANTES (Caco-2 monolayer) was <0.67↓ pg/ml, the TGF-a (Caco-2 monolayer) was <0.66↓ pg/ml and the TNFa (Caco-2 monolayer) was <3.91↓ pg/ml. For the same substance, the TNFb (Caco-2 monolayer) was 21.23 pg/mL, the VEGFa (Caco-2 monolayer) was 2653 pg/mL and the sCD40L (Caco-2 monolayer) was <6.66↓ pg/ml. The “effect on cytokine production” value (polarized Caco-2 monolayer) was “no effect”.
